{"source": "patent US12729382B2", "about": "“Tea plant CsVAAT3 gene and use thereof” (Anhui Agricultural University, priority 2022, dated 2026)", "test_system": "wild-type BY4743 and yeast vacuolar amino acid mutants YPQ2, AVT2, AVT6", "test": "Yeast dotting growth phenotype on high-concentration theanine medium", "type": "cell-based", "conditions": "theanine 50 mM", "description": "Yeast mutants YPQ2, AVT2, and AVT6 are high-concentration theanine-sensitive strains, and their growth is inhibited in a high-concentration theanine environment, which was used to verify the stress resistance of the selected genes. The YPQ2 strain was streaked on YPDA Agar Medium and cultured upside down in a constant temperature incubator at 28° C. for 2-3 days. A well-grown single colony was picked in a 2 mL centrifuge tube, added with 1 mL of YPDA Liquid Medium, and incubated at 28° C. on a shaker at 180 r/min for one day. 200 μL of well-grown yeast suspension was transferred to 30 mL of YPDA Liquid Medium, and incubated on a shaker at 28° C. and 180 r/min for 12-24 h. […] 500 μL of PEG mixture and 5 μL of DTT (1 M, ready for use) were added and vortexed. […]\nA single colony was picked in 20 mL of SD-U […] medium and shaken to an OD600 value of about 1.0 at 28° C. and 180 r/min (for about 48 h); 4 mL of yeast suspension was pipetted and centrifuged at 5,000 rpm for 2 min, the supernatant was discarded (under aseptic operation), cells were resuspended with sterile water, and the OD600 value was detected; the yeast suspension was diluted with sterile water to an OD600 value of 0.6 (the difference between the OD600 values of each sample should not exceed 0.02); (under aseptic operation) the yeast suspension was diluted to 10^0, 10^−1, 10^−2, and 10^−3 in turn. […]"}
{"smiles": "CCNC(=O)CC[C@H](N)C(=O)O", "note": "[theanine]", "values": [{"measurement": "growth of yeast under theanine treatment", "setting": "CsVAAT3-transformed yeast mutants (pDR196-CsVAAT3)", "result": "normal growth state"}, {"measurement": "growth of yeast under theanine treatment", "setting": "wild-type BY4743 and mutants YPQ2, AVT2, AVT6 (empty vector pDR196), solid medium, 30° C., about three days", "result": "significantly inhibited"}]}
